We go through 3 compounds from patent US20050032761A1, “Lipid profile modulation” (priority 2001, published 2005).

Series [1] in a line: Food intake and body weight in lean and obese Zucker rats treated with carbenoxolone. Conditions: lean or obese animals; 50 mg/kg by gavage daily, three weeks. The class given is in vivo. How it is done:
Groups of eight 5-week-old male obese and lean Zucker rats (Harlan Orlac, Bicester, UK) were characterised by phenotype; maintained under controlled conditions of light (on 0800 h-2000 h) and temperature (21° C.) and allowed free access to standard rat chow. (Special Diet Services, Witham, UK) and drinking water. Drug treatment—Drug treatment was commenced when the animals were 6 weeks of age. […] Animals were weighed regularly to allow accurate dosing with drugs, and to follow the progress of weight gain. Food intake for each cage of 4 animals was measured daily. After two weeks of treatment animals underwent an oral glucose tolerance test, which consisted of an overnight fast, followed by an oral glucose load of 2 g/kg body weight at 0900 h. Blood samples were taken by tail-nick at 0, 30 and 120 min after the glucose bolus.

The nature of series [2]: Oral glucose tolerance test in lean and obese Zucker rats. The class given is in vivo. How it is done: Drug treatment—Drug treatment was commenced when the animals were 6 weeks of age. […] Animals were weighed regularly to allow accurate dosing with drugs, and to follow the progress of weight gain. Food intake for each cage of 4 animals was measured daily. After two weeks of treatment animals underwent an oral glucose tolerance test, which consisted of an overnight fast, followed by an oral glucose load of 2 g/kg body weight at 0900 h. Blood samples were taken by tail-nick at 0, 30 and 120 min after the glucose bolus. […] Glucose concentrations were determined using a hexokinase glucose assay kit (Sigma, Poole, UK), for which the inter- and intra-assay coefficients of variation were both <2%.

Series [3] can be described thus: Non-fasting plasma lipid levels in lean and obese Zucker rats. The class given is in vivo. As for the experimental part: Drug treatment—Drug treatment was commenced when the animals were 6 weeks of age. […] Animals were weighed regularly to allow accurate dosing with drugs, and to follow the progress of weight gain. Food intake for each cage of 4 animals was measured daily. After two weeks of treatment animals underwent an oral glucose tolerance test, which consisted of an overnight fast, followed by an oral glucose load of 2 g/kg body weight at 0900 h. Blood samples were taken by tail-nick at 0, 30 and 120 min after the glucose bolus. […] Lipid levels were measured in plasma prepared from terminal blood samples collected at 0900-1100 h. Triglycerides, total cholesterol and HDL cholesterol were measured using […] (TG, CHOL and HDL C-plus respectively) from Roche Diagnostics, Mannheim, Germany. Non-esterified fatty acids (NEFAs) were measured using the Wako NEFA C enzymatic assay (Alpha Laboratories Ltd, Hampshire, UK).

Series [4] addresses T1, 5β-reductase (Rattus norvegicus, UniProt P31210).
T1 construct: conversion of [^3H]-corticosterone to [^3H]-5β-tetrahydrocorticosterone in liver cytosol preparations; from tissue; host or cells: Zucker rat liver cytosol
T1 sequence (P31210 1-326): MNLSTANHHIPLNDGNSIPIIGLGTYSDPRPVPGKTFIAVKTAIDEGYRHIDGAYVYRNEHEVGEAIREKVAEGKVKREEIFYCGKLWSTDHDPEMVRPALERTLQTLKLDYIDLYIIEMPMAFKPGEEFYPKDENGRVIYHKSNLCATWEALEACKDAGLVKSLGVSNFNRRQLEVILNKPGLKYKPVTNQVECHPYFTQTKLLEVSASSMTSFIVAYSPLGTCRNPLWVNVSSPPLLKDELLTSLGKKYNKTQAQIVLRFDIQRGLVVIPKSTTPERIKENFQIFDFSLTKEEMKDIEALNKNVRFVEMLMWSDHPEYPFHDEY
The series is described as follows: Hepatic 5β-reductase activity in liver cytosol after carbenoxolone administration. The class given is in vivo, Zucker rats. Conditions: obese animals. As for the experimental part:
(§1) Drug treatment—Drug treatment was commenced when the animals were 6 weeks of age. […] Animals were weighed regularly to allow accurate dosing with drugs, and to follow the progress of weight gain. Food intake for each cage of 4 animals was measured daily. After two weeks of treatment animals underwent an oral glucose tolerance test, which consisted of an overnight fast, followed by an oral glucose load of 2 g/kg body weight at 0900 h. Blood samples were taken by tail-nick at 0, 30 and 120 min after the glucose bolus.
5β-Reductase activity in the liver was assessed by the conversion of [^3H]-corticosterone to [^3H]-5β-tetrahydrocorticosterone in liver cytosol preparations. The sub-cellular localisation and cofactor preference of 11β-HSD1 and 5β-reductase differ such that the enzyme activities can be measured independently of one another. Liver cytosol was prepared by repeated centrifugation according to the method of (Fleischer & Kervina 1974). Enzyme activity was measured by incubating cytosol (100 μg protein/ml) in duplicate at 37° C., in phosphate buffer (40 mM Na2PO4, 320 mM sucrose, 1 mM dithiothreitol, pH 7.5) containing NADPH (1 mM) and [^3H]-corticosterone (150 nM). […] Steroids were separated by HPLC using a reverse phase C8 column at 10° C., and quantified by on-line liquid scintillation counting. […]

A short description of series [5]: Hypothalamic pituitary adrenal axis: adrenal weight and plasma corticosterone in Zucker rats. The class given is in vivo. How it is done:
as §1, with “bolus. […] Plasma assays—Corticosterone levels were measured in plasma prepared from terminal blood samples collected at 0900-1100 h using an in-house radioimmunoassay (74). The inter- and intra-assay coefficients of variation were<10%.” for “bolus.”

For series [6], the target named is T2, 11β-HSD1 (Homo sapiens, UniProt P28845).
T2 construct: host or cells: human subjects in vivo
T2 sequence (P28845 whole entry): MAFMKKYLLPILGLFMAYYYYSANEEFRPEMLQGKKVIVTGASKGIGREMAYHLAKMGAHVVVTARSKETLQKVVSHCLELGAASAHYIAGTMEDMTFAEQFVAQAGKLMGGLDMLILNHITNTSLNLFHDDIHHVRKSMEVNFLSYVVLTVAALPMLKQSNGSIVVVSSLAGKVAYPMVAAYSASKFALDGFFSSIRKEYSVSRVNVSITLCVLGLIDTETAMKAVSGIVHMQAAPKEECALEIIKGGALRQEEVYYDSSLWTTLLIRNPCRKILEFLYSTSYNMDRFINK
Conditions: humans; cited from earlier work.

Series [7] can be described thus: Carbenoxolone randomised double-blind crossover study, fasting plasma lipids. Particulars: men with type 2 diabetes mellitus and healthy controls, vs placebo.
Description: Fasting levels of plasma lipids are shown.
In series [8] the target is T3, 11β-HSD1 (Rattus norvegicus, UniProt P16232). The series is described as follows: 11β-HSD1 activity in tissue homogenates after carbenoxolone administration. Conditions: ex vivo, liver; lean and obese animals. Also noted: from tissue; host or cells: Zucker rat liver, quadriceps skeletal muscle, subcutaneous lumbar fat, omental fat homogenates; species or system Zucker rats. How it is done:
as §1
Measurement of enzyme activities in vitro—11β-HSD1 activity was measured in homogenates of tissues by incubating in duplicate at 37° C., in Krebs Ringer buffer containing glucose (0.2%), NADP (2 mM) and 1,2,6,7-[^3H]4-corticosterone (100 nM). Conditions were optimised for each tissue to ensure first order kinetics, by adjusting protein concentrations as follows: 10 μg/ml for liver; 1.5 mg/ml for quadriceps skeletal muscle; 0.5 mg/ml for subcutaneous lumbar fat and 1 mg/ml for omental fat. […] Steroids were separated by HPLC using a reverse phase μ-Bondapak C18 column at 20° C. and quantified by on-line liquid scintillation counting. No peaks other than ^3H-corticosterone and ^3H-11-dehydrocorticosterone were detected under these conditions.

Series [9] concerns glucocorticoid receptor-mediated response in human skin. As to the kind of experiment: Skin blanching after topical application to forearm skin. In kind it is in vivo. Conditions: applied together with beclomethasone, 12 healthy humans. How it is done: The intensity of skin blanching was recorded the following day by two observers who were blind to the order of application of steroid solutions, as described (80).

For series [10], the target named is T4, 5β-reductase (Homo sapiens, UniProt P51857).
T4 sequence (P51857 1-326): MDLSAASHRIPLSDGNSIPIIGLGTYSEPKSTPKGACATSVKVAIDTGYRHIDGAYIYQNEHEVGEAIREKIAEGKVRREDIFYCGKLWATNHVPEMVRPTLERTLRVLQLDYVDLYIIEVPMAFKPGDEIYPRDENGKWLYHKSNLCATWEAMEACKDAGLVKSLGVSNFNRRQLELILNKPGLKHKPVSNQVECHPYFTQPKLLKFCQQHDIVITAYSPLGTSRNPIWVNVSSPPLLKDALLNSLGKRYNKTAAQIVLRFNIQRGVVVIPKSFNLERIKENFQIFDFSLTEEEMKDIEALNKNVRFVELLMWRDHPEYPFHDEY
Conditions: reported (70); cited from earlier work.

For series [11], the target named is T3, 11β-HSD1. As to the kind of experiment: Incubation of beclomethasone with homogenised rat liver. In kind it is in vitro ADME. Also noted: incubation of beclomethasone with homogenised rat liver; from tissue; host or cells: homogenised rat liver. Conditions: HPLC, UV 254 nm.
Where [12] appears, read: non-fasting plasma, obese animals.

T3 sequence (P16232 whole entry): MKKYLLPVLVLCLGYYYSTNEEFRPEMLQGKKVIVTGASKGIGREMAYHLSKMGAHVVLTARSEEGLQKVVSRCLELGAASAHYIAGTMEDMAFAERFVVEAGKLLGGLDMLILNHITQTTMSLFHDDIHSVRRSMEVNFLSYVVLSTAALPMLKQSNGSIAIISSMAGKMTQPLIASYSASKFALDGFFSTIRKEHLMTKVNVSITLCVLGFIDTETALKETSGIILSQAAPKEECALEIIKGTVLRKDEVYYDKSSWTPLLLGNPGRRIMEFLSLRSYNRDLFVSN

Regarding `CC1(C)[C@@H](OC(=O)CCC(=O)O)CC[C@]2(C)[C@H]3C(=O)C=C4[C@@H]5C[C@@](C)(C(=O)O)CC[C@]5(C)CC[C@@]4(C)[C@]3(C)CC[C@@H]12` [Carbenoxolone], in series [1], the body weight result is recorded as “no effect” and the food intake result is reported as “no effect”. In addition, the plasma insulin result in [2] (30 min after glucose, both lean and obese animals) was “increased”. Also, the plasma insulin entry in [2] (120 min after glucose, obese animals) was “increased”. For the same compound, the glucose tolerance result in series [2] (Zucker rats) is reported as “no effect”. Moreover, in series [2] (fasting state, both lean and obese animals), the plasma insulin entry is on record as “increased”. Besides, in series [2] (lean and obese, fasting and after oral glucose load, two weeks of treatment), the plasma glucose result is on record as “no significant effect”. The “non-fasting plasma NEFAs” value in series [3] (all groups, lean and obese) is “not different”. Moreover, in series [3] (non-fasting plasma, lean and obese rats, three weeks of treatment), the total cholesterol result is “not affected”. In [3] (setting [12]), the HDL cholesterol result was “increased” and the triglycerides entry is given as “reduced”. Moreover, the “hepatic 5β-reductase activity (conversion of corticosterone to 5β-tetrahydrocorticosterone)” value in series [4] is given as “exacerbated the increase”. In addition, the plasma corticosterone levels result in [5] (lean and obese, terminal blood, trend for carbenoxolone to increase) is “no statistically significant differences”. In addition, the adrenal weight result in series [5] (lean animals) is listed as “no effect”. In addition, the “adrenal weight (adrenal hypertrophy)” value in series [5] (obese rats) was “ameliorated”. Further, in series [6], the “amount of glucose required to maintain normoglycemia” value is reported as “increases” and the forearm glucose uptake result was “without altering”. In [7], the “HDL (high density lipoprotein) cholesterol concentrations” value is recorded as “raised”, the total cholesterol result is on record as “did not affect” and the triglyceride concentrations entry was “lowered”. Moreover, in [8], the “hepatic 11β-HSD1 activity (conversion of corticosterone to 11-dehydrocorticosterone)” value is on record as “inhibition”.

For `CC1(C)[C@@H](O)CC[C@]2(C)[C@H]3C(=O)C=C4[C@@H]5C[C@@](C)(C(=O)O)CC[C@]5(C)CC[C@@]4(C)[C@]3(C)CC[C@@H]12` [Glycyrrhetinic acid], the “blanching response to beclomethasone (area under the dose-response curve)” value in series [9] is listed as “reduced”. In series [10], the “inhibition of 5β-reductase” value is given as “inhibit”.

`C[C@H]1C[C@H]2[C@@H]3CCC4=CC(=O)C=C[C@]4(C)[C@@]3(Cl)[C@@H](O)C[C@]2(C)[C@@]1(O)C(=O)CO` [beclomethasone]: in [11], the “conversion of beclomethasone to 11-dehydrobeclomethasone” value is recorded as “substrate”.
